Measurements: BindingDB's records for doi:10.1021/jm201510p (Abo Akademi University, 2012)

Target: T1, Poly [ADP-ribose] polymerase tankyrase-2 (Homo sapiens, UniProt Q9H2K2)
T1 sequence (Q9H2K2 whole entry): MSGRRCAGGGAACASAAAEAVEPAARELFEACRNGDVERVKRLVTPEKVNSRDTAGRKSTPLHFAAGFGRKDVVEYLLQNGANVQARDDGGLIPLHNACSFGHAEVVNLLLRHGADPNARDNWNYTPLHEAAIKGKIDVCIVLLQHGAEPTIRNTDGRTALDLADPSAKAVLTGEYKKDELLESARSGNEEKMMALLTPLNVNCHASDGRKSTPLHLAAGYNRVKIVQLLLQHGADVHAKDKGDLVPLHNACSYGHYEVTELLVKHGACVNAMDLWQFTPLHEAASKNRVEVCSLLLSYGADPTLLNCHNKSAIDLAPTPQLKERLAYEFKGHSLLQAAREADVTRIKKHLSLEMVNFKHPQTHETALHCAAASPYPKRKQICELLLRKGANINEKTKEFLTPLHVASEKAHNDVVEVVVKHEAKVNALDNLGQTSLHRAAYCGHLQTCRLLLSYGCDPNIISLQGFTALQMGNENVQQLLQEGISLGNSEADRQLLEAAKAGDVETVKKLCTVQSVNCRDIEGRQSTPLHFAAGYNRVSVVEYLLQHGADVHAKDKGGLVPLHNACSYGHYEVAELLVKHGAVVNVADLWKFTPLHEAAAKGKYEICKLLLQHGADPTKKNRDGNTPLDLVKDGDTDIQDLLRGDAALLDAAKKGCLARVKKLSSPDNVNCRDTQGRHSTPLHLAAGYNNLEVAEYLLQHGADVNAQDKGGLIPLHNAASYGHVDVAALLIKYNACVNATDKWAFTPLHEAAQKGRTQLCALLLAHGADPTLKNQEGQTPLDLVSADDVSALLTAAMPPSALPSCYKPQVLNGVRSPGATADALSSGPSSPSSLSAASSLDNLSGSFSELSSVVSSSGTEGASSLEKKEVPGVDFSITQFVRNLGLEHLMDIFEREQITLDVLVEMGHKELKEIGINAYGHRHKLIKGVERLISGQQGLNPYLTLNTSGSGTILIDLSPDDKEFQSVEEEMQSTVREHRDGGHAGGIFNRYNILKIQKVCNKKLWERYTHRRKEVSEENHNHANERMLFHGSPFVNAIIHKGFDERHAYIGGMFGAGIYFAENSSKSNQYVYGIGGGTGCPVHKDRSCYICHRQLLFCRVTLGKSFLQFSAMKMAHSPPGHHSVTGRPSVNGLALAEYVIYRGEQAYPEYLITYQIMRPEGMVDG
Assay: Activity of N-terminus hexaHis-tagged human TNSK2 expressed in Escherichia coli BL21 (DE3) cells using biotinylated NAD+ as substrate after 90 mins by Western blot analysis

| EC50 | SMILES |
| --- | --- |
| > 25 µM | O=C(Nc1ccccc1)c1ccc(-n2c(O)c3c(c2O)[C@H]2C=C[C@@H]3C2)cc1 |
| > 25 µM | O=C(NC1CCCCC1)c1ccc(-n2c(O)c3c(c2O)[C@H]2C=C[C@@H]3C2)cc1 [N-Cyclohexyl-4-((1R,2S,6R,7S)-3,5-dioxo-4-aza-tricyclo[5.2.1.0*2,6*]dec-8-en-4-yl)-benzamide] |
